Test results: patent publication US9693556B2, “Herbicidal pyridazinone derivatives” (SYNGENTA LIMITED, priority 2011, dated 2017)

Key:
Format in all cases: in vivo
[1] = system: Alopecurus myosuroides (ALOMY); assay: Post-emergence herbicidal glasshouse test on Alopecurus myosuroides; settings: for POST Application ALOMY herbicidal damage (five point scale): post-emergence, 1000 g/h, evaluated after 13 days
Description: (§1) Seeds of a variety of test species are sown in standard soil in pots (Alopecurus myosuroides (ALOMY), Setaria faberi (SETFA), Echinochloa crus-galli (ECHCG), Solanum nigrum (SOLNI), Amaranthus retoflexus (AMARE), Ipomoea hederacea (IPOHE)). After cultivation for one day (pre-emergence) or after 8 days cultivation (post-emergence) under controlled conditions in a glasshouse (at 24/16° C., day/night; 14 hours light; 65% humidity), the plants are sprayed with an aqueous spray solution derived from the formulation of the technical active ingredient in acetone/water (50:50) solution containing 0.5% Tween 20 (polyoxyethelyene sorbitan monolaurate, CAS RN 9005-64-5). Compounds are applied at 1000 g/h. The test plants are then grown in a glasshouse under controlled conditions in a glasshouse (at 24/16° C., day/night; 14 hours light; 65% humidity) and watered twice daily. After 13 days for pre and post-emergence, the test is evaluated for the percentage herbicidal damage caused to the plant. The biological activities are shown in the following table on a five point scale (5=80-100% damage; 4=60-79% damage; 3=40-59% damage; 2=20-39% damage; 1=0-19% damage).

[2] = system: Ipomoea hederacea (IPOHE); assay: Post-emergence herbicidal glasshouse test on Ipomoea hederacea; settings: for POST Application IPOHE herbicidal damage (five point scale): post-emergence, 1000 g/h, evaluated after 13 days
Description: as §1

[3] = system: Alopecurus myosuroides (ALOMY); assay: Pre-emergence herbicidal glasshouse test on Alopecurus myosuroides; settings: for PRE Application ALOMY herbicidal damage (five point scale): pre-emergence, 1000 g/h, evaluated after 13 days
Description: as §1

Solanum nigrum (SOLNI) [4] = assay: Post-emergence herbicidal glasshouse test on Solanum nigrum; settings: for POST Application SOLNI herbicidal damage (five point scale): post-emergence, 1000 g/h, evaluated after 13 days
Description: as §1

[5] = system: Ipomoea hederacea (IPOHE); assay: Pre-emergence herbicidal glasshouse test on Ipomoea hederacea; settings: pre-emergence; 1000 g/h; evaluated after 13 days
Description: as §1

[6] = system: Echinochloa crus-galli (ECHCG); assay: Post-emergence herbicidal glasshouse test on Echinochloa crus-galli; settings: for POST Application ECHCG herbicidal damage (five point scale): post-emergence, 1000 g/h, evaluated after 13 days
Description: as §1

[7] = system: Amaranthus retoflexus (AMARE); assay: Post-emergence herbicidal glasshouse test on Amaranthus retoflexus; settings: for POST Application AMARE herbicidal damage (five point scale): post-emergence, 1000 g/h, evaluated after 13 days
Description: as §1

Setaria faberi (SETFA) [8] = assay: Pre-emergence herbicidal glasshouse test on Setaria faberi; settings: for PRE Application SETFA herbicidal damage (five point scale): pre-emergence, 1000 g/h, evaluated after 13 days
Description: as §1

[9] = system: Echinochloa crus-galli (ECHCG); assay: Pre-emergence herbicidal glasshouse test on Echinochloa crus-galli; settings: pre-emergence; 1000 g/h; evaluated after 13 days
Description: as §1

Setaria faberi (SETFA) [10] = assay: Post-emergence herbicidal glasshouse test on Setaria faberi; settings: for POST Application SETFA herbicidal damage (five point scale): post-emergence, 1000 g/h, evaluated after 13 days
Description: as §1

Solanum nigrum (SOLNI) [11] = assay: Pre-emergence herbicidal glasshouse test on Solanum nigrum; settings: for PRE Application SOLNI herbicidal damage (five point scale): pre-emergence, 1000 g/h, evaluated after 13 days
Description: as §1

[12] = system: Amaranthus retoflexus (AMARE); assay: Pre-emergence herbicidal glasshouse test on Amaranthus retoflexus; settings: pre-emergence application, Amaranthus retoflexus, damage score 1-5
Description: as §1

Row | Compound | POST Application ALOMY herbicidal damage (five point scale) [1] | POST Application IPOHE herbicidal damage (five point scale) [2] | PRE Application ALOMY herbicidal damage (five point scale) [3] | POST Application SOLNI herbicidal damage (five point scale) (Solanum nigrum (SOLNI) [4]) | PRE Application IPOHE herbicidal damage (five point scale) [5] | POST Application ECHCG herbicidal damage (five point scale) [6] | POST Application AMARE herbicidal damage (five point scale) [7] | PRE Application SETFA herbicidal damage (five point scale) (Setaria faberi (SETFA) [8]) | PRE Application ECHCG herbicidal damage (five point scale) [9] | POST Application SETFA herbicidal damage (five point scale) (Setaria faberi (SETFA) [10]) | PRE Application SOLNI herbicidal damage (five point scale) (Solanum nigrum (SOLNI) [11]) | also measured
1 | CC(C)n1ncc(-c2c(Cl)ccc(Cl)c2Cl)c(O)c1=O [Compound 1.015] | 1 (1=0-19% damage) | 4 (4=60-79% damage) | 1 (1=0-19% damage) | 4 (4=60-79% damage) | 1 (1=0-19% damage) | 2 (2=20-39% damage) | 2 (2=20-39% damage) | 1 (1=0-19% damage) | 1 (1=0-19% damage) | 1 (1=0-19% damage) | – | –
2 | Cc1cccn(-c2cnn(C)c(=O)c2O)c1=O [Compound 1.062] | 2 (2=20-39% damage) | 5 (5=80-100% damage) | 1 (1=0-19% damage) | 4 (4=60-79% damage) | 1 (1=0-19% damage) | 5 (5=80-100% damage) | 5 (5=80-100% damage) | 1 (1=0-19% damage) | 1 (1=0-19% damage) | 4 (4=60-79% damage) | 1 (1=0-19% damage) | –
3 | Cn1ncc(-c2ccccc2[N+](=O)[O-])c(O)c1=O [Compound 1.111] | 1 (1=0-19% damage) | 1 (1=0-19% damage) | 1 (1=0-19% damage) | 3 (3=40-59% damage) | 2 (2=20-39% damage) | 1 (1=0-19% damage) | 2 (2=20-39% damage) | 1 (1=0-19% damage) | 1 (1=0-19% damage) | 1 (1=0-19% damage) | – | –
4 | CCCn1ncc(-c2ccc(C(F)(F)F)cc2Cl)c(O)c1=O [Compound 1.126] | 1 (1=0-19% damage) | 3 (3=40-59% damage) | 1 (1=0-19% damage) | 4 (4=60-79% damage) | 1 (1=0-19% damage) | 2 (2=20-39% damage) | 5 (5=80-100% damage) | 1 (1=0-19% damage) | 1 (1=0-19% damage) | 2 (2=20-39% damage) | 1 (1=0-19% damage) | –
5 | CCCCn1c(C2CC2)ncc(-c2cnn(C)c(=O)c2O)c1=O [Compound 10.005] | – | – | – | – | – | – | – | – | – | – | – | POST Application ALOMY ([1]; post-emergence application, Alopecurus myosuroides, damage score 1-5): 2 (2=20-39% damage); POST Application IPOHE ([2]; post-emergence application, Ipomoea hederacea, damage score 1-5): 4 (4=60-79% damage); PRE Application ALOMY ([3]; pre-emergence application, Alopecurus myosuroides, damage score 1-5): 1 (1=0-19% damage); POST Application SOLNI (Solanum nigrum (SOLNI) [4]; post-emergence application, Solanum nigrum, damage score 1-5): 5 (5=80-100% damage); PRE Application AMARE [12]: 5 (5=80-100% damage); POST Application ECHCG ([6]; post-emergence application, Echinochloa crus-galli, damage score 1-5): 5 (5=80-100% damage); POST Application AMARE ([7]; post-emergence application, Amaranthus retoflexus, damage score 1-5): 5 (5=80-100% damage); PRE Application SOLNI (Solanum nigrum (SOLNI) [11]; pre-emergence application, Solanum nigrum, damage score 1-5): 5 (5=80-100% damage); PRE Application SETFA (Setaria faberi (SETFA) [8]; pre-emergence application, Setaria faberi, damage score 1-5): 1 (1=0-19% damage); POST Application SETFA (Setaria faberi (SETFA) [10]; post-emergence application, Setaria faberi, damage score 1-5): 5 (5=80-100% damage)
